In US6313094A, “β-amino-α-hydroxycarboxylic acid derivatives and HIV protease inhibitors” (priority 1990, dated 2001):
*1 amine or outer side, *2 acyl side, *3 side chain or, on linkers, in order; H or OH if unused. Where a SMILES comes first, the peptide text is derived from it. [ ]: non-standard residue; d: D form. The star is where a group is joined. X1 = O=C([C@@H](O)[C@H](Cc1ccccc1)N[*:1])[*:2]; PhAc = O=C(Cc1ccccc1)*

Molecular target: T1, chemically synthesized HIV protease (Human immunodeficiency virus type 1 group M subtype B, UniProt P12497, C555A/C583A)
T1 construct: The HIV protease was chemically synthesized; made in house; host or cells: chemical (peptide) synthesis, no expression host
Assay type: biochemical
Details: expected; compound only said to be preparable
Protocol: (§1) The HIV protease was chemically synthesized by replacement of two cysteine residues in the natural sequence [Science, 230, 949 (1985)] with alanine residues. The reaction mixture contained 100 mM MES buffer (pH 5.5), 40 mM of substrate (Ac-[…]NH, trifluoroacetate), inhibitors at varying concentrations dissolved in DMSO and 9.2 μg of the HIV protease in a total volume of 15 μl. Incubation was carried out at 37° C. for 60 min. The reaction was started by the addition of the enzyme and terminated by 15 μl of acetonitrile. The amount of a fragment peptide produced was measured by reversed-phase HPLC analysis using an internal standerd. The HPLC condition was as followes.
Solvent A: 0.1% trifluoroacetic acid aqueous solution
Gradient: B was increased in 1.0%/min from 100% of A,

Q: With “5Isoquinoline-O--CH2 CO-Asn-(2S,3S)-AHPBA-Thz-NH-tBu [Example 192]” as the compound, how does the “inhibitory activity against the HIV protease” value read?
A: The value was “high inhibitory activity”.

Same assay, conditions: inhibitor 50 nM

Q: With “Benzyloxycarbonyl-Asn-(2S,3S)-AHPBA-Cpp-NH-tBu [Example 185]” as the compound, how does the “Residual Activity (%)” value read?
A: The value was 96.0%.

Q: Which “Residual Activity (%)” value does the source give for “Benzyloxycarbonyl-Asn-(2S,3S)-AHPBA-Dtc-NH-tBu [Example 104]” here?
A: The value was 3.8%.

Q: Which “Residual Activity (%)” value does the source give for “1-Naphtboxyacetyl-Msv-(2S,3S)-AHPBA-Thz-NH-tBu [Example 155]” here?
A: Its value is 7.3%.

Q: Which “Residual Activity (%)” value does the source give for “Benzyloxycarbonyl-Asn-(2S3S)-AHPBA-Pro-NHsBu [Example 176]” here?
A: The value was 82.6%.

Q: “1-Naphthoxyacetyl-Msa-(2S,3S)-AHPBA-Thz-Pip-O--CH3 [Example 159]” was tested. Which “Residual Activity (%)” value did it give?
A: Its value is 90.8%.

Q: With “1-Naphthoxyacetyl-Mtv-(2S,3S)-AHPBA-Thz-NH-tBu [Example 154]” as the compound, how does the “Residual Activity (%)” value read?
A: Its value is 35.4%.

Q: With “2-Quinolinecarbonyl-Asn-(2S,3S)-AHPBA-Dtc-NH-tBu [Example 118]” as the compound, how does the “Residual Activity (%)” value read?
A: Its value is 1.8%.

Q: “1-Isoquinolinecarbonyl-Asn-(2S,3S)-AHPBA-Pro-NH-tBu [Example 140]” was tested. Which “Residual Activity (%)” value did it give?
A: Its value is 72.8%.

Q: For “1-Naphthoxyacetyl-Msa-(2S,3S)-AHPBA-Dmp-NH-tBu [Example 183]”, which “Residual Activity (%)” value is on record?
A: Its value is 4.3%.

Q: “1-Naphthoxyacetyl-Mta-(2S,3S)-AHPBA-Thz-NH-tBu [Example 162]” was tested. Which “Residual Activity (%)” value did it give?
A: The value was 2.9%.

Q: For “Benzyloxycarbonyl-Asn-(2S,3S)-AHPBA-Pro-NH--C(CH3)2 --CH2 OH [Example 99]”, which “Residual Activity (%)” value is on record?
A: The value was 62.2%.

Q: “1-NaPhthoxyacetyl-Prg-(2S,3S)-AHPBA-Thz-NH-tBu [Example 180]” was tested. Which “Residual Activity (%)” value did it give?
A: Its value is 26.0%.

Q: With “1-Naphthoxyacetyl-Ile-(2S,3S)-AHPBA-Thz-NH-tBu [Example 161]” as the compound, how does the “Residual Activity (%)” value read?
A: The value was 7.0%.

Q: With “Benzyloxycarbonyt-Asn-(2S,3S)-AHPBA-Ccp-NH-tBu [Example 187]” as the compound, how does the “Residual Activity (%)” value read?
A: The value was 99.0%.

Q: For “PhCH2 -O--CO-Asn-(2S,3S)-AHPBA-(D)-Tic-NH-tBu [Example 103]”, which “Residual Activity (%)” value is on record?
A: The value was 91.4%.

Q: How did the “Residual Activity (%)” value turn out when “2-Naphthoxyacetyl-Msa-(2S,3S)-AHPBA-Pro-NH-tBu [Example 131]” was run?
A: The value was 28.8%.

Q: For “Bis(4-chlorophenyl)methyloxyacetyl-Asn-(2S,3S)-AHPBA-Pro-NH-tBu [Example 94]”, which “Residual Activity (%)” value is on record?
A: Its value is 37.0%.

Q: With “PhCH2 -O--CO-Asn-(2S,3S)-AHPBA-(L)-Tic-NH-tBu [Example 102]” as the compound, how does the “Residual Activity (%)” value read?
A: Its value is 89.2%.

Q: “1-Napthoxyacetyl-Sma-(2S,3S)-AHPBA-Pro-NH-tBu [Example 98]” was tested. Which “Residual Activity (%)” value did it give?
A: The value was 70.5%.

Same assay, conditions: inhibitor 5 μM (final concentration)

Q: `CC(C)(C)NC(=O)[C@@H]1CCCN1C(=O)[C@@H](O)[C@H](Cc1ccccc1)NC(=O)[C@H](CC(N)=O)NC(=O)OCc1ccccc1` [Example 55, Benzyloxycarbonyl-Asn-(2S,3S)-AHPBA-Pro-NH-tBu] was tested. Which “Residual Activity (%)” value did it give?
A: Its value is 3.5%.

Q: How did the “Residual Activity (%)” value turn out when “Benzyloxycarbonyl-Asn-(2S,3S)-AHPBA-Pro-Ile-NH--CH2 --C6 H11 [Example 32]” was run?
A: The value was 4.0%.

Q: For “Furancarbonyl-Asn-(2S,3S)-AHPBA-Pro-Ile-Val-NH2 [Example 65]”, which “Residual Activity (%)” value is on record?
A: Its value is 9.3%.

Q: For “3-Phenylpropionyl-Smc(O)-(2S,3S)-AHPBA-Pro-Ile-Val-NH2 [Example 61]”, which “Residual Activity (%)” value is on record?
A: The value was 90.9%.

Q: With “Benzyloxycarbonyl-Asn-(2S,3S)-AHPBA-Pro-NH--CH2 --C(CH3)3 [Example 83]” as the compound, how does the “Residual Activity (%)” value read?
A: Its value is 12.4%.

Q: How did the “Residual Activity (%)” value turn out when “Benzyloxycarbonyl-Val-(2R,3S)-AHPBA-Phe-Val-NH--CH2 --CH(CH3)2 [Example 53]” was run?
A: Its value is 83.4%.

Q: Which “Residual Activity (%)” value does the source give for “Boc-Sma-(2S,3S)-AHPBA-Pro-NH-tBu [Example 97]” here?
A: The value was 92.9%.

Q: Which “Residual Activity (%)” value does the source give for “3-Phenylpropionyl-Msa-(2S,3S)-AHPBA-Pro-Ile-Val-NH2 [Example 62]” here?
A: The value was 3.2%.

Q: For “Benzyloxycarbonyl-Asn-(2S,3S)-AHPBA-(D)-Pip-NH-tBu [Example 79]”, which “Residual Activity (%)” value is on record?
A: The value was 84.0%.

Q: For `NC(=O)C[C@H](NC(=O)OCc1ccccc1)C(=O)N[C@@H](Cc1ccccc1)[C@H](O)C(=O)N1CCC[C@H]1C(=O)NC1CCCCC1` [Example 84, Benzyloxycarbonyl-Asn-(2S,3S)-AHPBA-Pro-NH--C6 H11], which “Residual Activity (%)” value is on record?
A: Its value is 9.6%.

Q: Which “Residual Activity (%)” value does the source give for “Benzyloxycarbonyl-Val-(2R,3S)-AHPBA-Phe-NH--CH2 --CH(CH3)2 [Example 54]” here?
A: The value was 84.9%.

Q: Which “Residual Activity (%)” value does the source give for “Benzyloxycarbonyl-Asn-(2S,3S)-AHPBA-Pro-NH-cycloropyl [Example 88]” here?
A: The value was under 10%.

Q: “Benzyloxycarbonyl-Asn-(2S,3S)-AHPBA-Pro-NH-tAmyl [Example 87]” was tested. Which “Residual Activity (%)” value did it give?
A: The value was 5.8%.

Q: `CC(C)(C)NC(=O)[C@@H]1CCCN1C(=O)[C@H](O)[C@H](Cc1ccccc1)NC(=O)[C@H](CC(N)=O)NC(=O)OCc1ccccc1` [Example 56, Benzyloxycarbonyl-Asn-(2R,3S)-AHPBA-Pro-NH-tBu] was tested. Which “Residual Activity (%)” value did it give?
A: Its value is 95.1%.

Q: With `CC[C@H](C)[C@H](NC(=O)[C@@H]1CCCN1C(=O)[C@@H](O)[C@H](Cc1ccccc1)NC(=O)[C@H](CO)NC(=O)Cc1ccccc1)C(=O)N[C@H](C(N)=O)C(C)C` [Example 20, Phenylacetyl-Ser-(2S,3S)-AHPBA-Pro-Ile-Val-NH2] (PhAc-S[X1]PIV-NH2) as the compound, how does the “Residual Activity (%)” value read?
A: Its value is 42.8%.

Q: “PhCH2 -O--CO-Asn-(2S,3S)-AHPBA-Pro-NH--CH2 --C6 H11 [Example 49]” was tested. Which “Residual Activity (%)” value did it give?
A: Its value is 51.9%.

Q: How did the “Residual Activity (%)” value turn out when `CC(C)NC(=O)[C@@H]1CCCN1C(=O)[C@@H](O)[C@H](Cc1ccccc1)NC(=O)[C@H](CC(N)=O)NC(=O)OCc1ccccc1` [Example 85, Benzyloxycarbonyl-Asn-(2S,3S)-AHPBA-Pro-NH--CH(CH3)2] was run?
A: Its value is 10.0%.

Q: “Thiophenecarbonyl-Asn-(2S,3S)-AHPBA-Pro-Ile-Val-NH2 [Example 67]” was tested. Which “Residual Activity (%)” value did it give?
A: The value was 4.9%.

Q: How did the “Residual Activity (%)” value turn out when “Benzyloxycarbonyl-Asn-(2S,3S)-AHPBA-Pro-NH--CH(C2 H5)2 [Example 89]” was run?
A: The value was under 10%.

Q: For `CC(C)(C)NC(=O)[C@@H]1CCCN1C(=O)[C@@H](O)[C@H](Cc1ccccc1)NC(=O)[C@H](CS(C)(=O)=O)NC(=O)OCc1cccc2ccccc12` [Example 90, 1-Naphthylmethyloxycarbonyl-Msa-(2S,3S)-AHPBA-Pro-NH-tBu], which “Residual Activity (%)” value is on record?
A: The value was 1.5%.

Q: How did the “Residual Activity (%)” value turn out when “Benzyloxycarbonyl-Asn-(2S,3S)-AHPBA-Pro-Aib-NH2 [Example 93]” was run?
A: Its value is under 10%.

Q: Which “Residual Activity (%)” value does the source give for “1-Naphthoxyacetyl-Msa-(2S,3S)-AHPBA-Thz-NH-chex-ol [Example 158]” here?
A: The value was under 10%.

Q: Which “Residual Activity (%)” value does the source give for “Benzyloxycarbonyl-Asn-(2S,3S)-AHPBA-Thz-NH-tBu [Example 82]” here?
A: The value was 1.3%.

Same assay, conditions: inhibitor 1 mM

Q: Which “Residual Activity (%)” value does the source give for `CC[C@H](C)[C@H](NC(=O)[C@@H]1CCCN1C(=O)[C@@H](O)[C@H](Cc1ccccc1)NC(=O)[C@H](CO)NC(=O)Cc1ccccc1)C(=O)N[C@H](C(N)=O)C(C)C` [Example 20, Phenylacetyl-Ser-(2S,3S)-AHPBA-Pro-Ile-Val-NH2] (PhAc-S[X1]PIV-NH2) here?
A: Its value is 2.8%.

Molecular target: recombinant HIV protease (Human immunodeficiency virus type 1 group M subtype B, UniProt P12497)
Details: inhibitor 5 μM (final concentration); 2.0 μg enzyme
Protocol: as §1

Q: For “Benzyloxycarbonyl-Asn-(2S,3S)-AHPBA-Pro-Ile-NH--CH2 --C6 H11 [Example 32]”, which residual enzymic activity is on record?
A: Its residual enzymic activity is 11.0%.
